Experimental data from patent publication US8476229B2, “Blood sugar-modulating polypeptides” (China Medical University, priority 2008, dated 2013).

Test system: normal mice (BALB/c)
Assay: Glucose challenge after oral administration of polypeptide, normal mice; blood sugar value by blood sugar meter
Assay type: in vivo
Settings: 50 mg/kg-body weight oral; for Inhibition Rate (%) toward the blood sugar values: BALB/c fasted 18 hrs, 4 g/kg glucose i.p. after 15 minutes, blood sugar after 180 minutes, relative to water control; for effect of reducing the blood sugar values (in words): BALB/c, comment on Tables 4 and 5
Text: The following materials were adopted in the examples: • (A) Experimental subjects: two strains of mice, BALB/c (the metabolism of blood sugar is normal) and ob/ob (spontaneous diabetes type 2), were used to conduct experiments, and they were provided by the National Laboratory Animal Center, Taiwan. • (B) Polypeptides: polypeptides with amino acid sequences shown in Table 1 were produced by the solid phase synthesis method.
Five normal mice (BALB/c) in each of the nine groups fasted for 18 hrs, and then, respectively, a solution (20 μL) of 50 mg/kg-body weight of the polypeptide of SEQ ID NO: 1, a solution (20 μL) of 50 mg/kg-body weight of the polypeptide of SEQ ID NO: 2, a solution (20 μL) of 50 mg/kg-body weight of the polypeptide of SEQ ID NO: 3, a solution (20 μL) of 50 mg/kg-body weight of the polypeptide of SEQ ID NO: 4, a solution (20 μL) of 50 mg/kg-body weight of the polypeptide of SEQ ID NO: 5, a solution (20 μL) of 50 mg/kg-body weight of the polypeptide of SEQ ID NO: 6, a solution (20 μL) of 50 mg/kg-body weight of the polypeptide of SEQ ID NO: 7, a solution (20 μL) of 50 mg/kg-body weight of the polypeptide of SEQ ID NO: 8, or a solution (20 μL) of 50 mg/kg-body weight of the polypeptide of SEQ ID NO:9, was given to each mouse of each group of the experimental group by oral administration, while in the control group (five mice), each mouse was given water (20 μL). After 15 minutes, a solution of 4 g/kg-body weight of glucose was injected into the peritoneal cavity of each mouse to rapidly raise the blood sugar value of each mouse. After 180 minutes, the blood of each mouse was extracted from its tails, and the blood sugar value was determined by a blood sugar meter (Accu-Check Advantage, Roche, Germany). The blood sugar values of the mice of the experimental group were compared with those of the control group and were analyzed to obtain the relative inhibition rate of each of the polypeptides toward the blood sugar values, as shown in Table 4.
Five normal mice (BALB/c) in each of two groups fasted for 18 hrs, and then, respectively, a solution (20 μL) of 50 mg/kg-body weight of the polypeptide of SEQ ID NO: 10, or a solution (20 μL) of 50 mg/kg-body weight of the polypeptide of SEQ ID NO:11, was given to each mouse of each group of the experimental group by oral administration, while in the control group (five mice), each mouse was given water (20 μL). After 15 minutes, a solution of 4 g/kg-body weight of glucose was injected into the peritoneal cavity of each mouse to rapidly raise the blood sugar value of each mouse. After 180 minutes, the blood of each mouse was extracted from its tails, and the blood sugar value was determined by a blood sugar meter (Accu-Check Advantage, Roche, Germany). The blood sugar values of the mice of the experimental group were compared with those of the control group and were analyzed to obtain a relative inhibition rate of the polypeptides of SEQ ID NO:10 and SEQ ID NO:11 toward the blood sugar values, as shown in Table 5.

Row | Sequence | Inhibition Rate (%) toward the blood sugar values [%] | effect of reducing the blood sugar values (in words) | Inhibition Rate (%) toward the blood sugar values (50 mg/kg) [%] | Inhibition Rate (%) toward the blood sugar values (listed as SEQ ID NO:11, 50 mg/kg)
1 | DENRVRIWVDTVAKTPTIG (ORYZA SATIVA) [SEQ ID NO: 9] | 60.2 ± 14.1 | better effect of reducing the blood sugar values | – | –
2 | RVRIWVNKRGLVVSPPRIG (CUCURBITA MAXIMA) [SEQ ID NO: 1] | 15.7 ± 6.9 | – | – | –
3 | RVRVWVDEIRIVVRNPTAG (ARABIDOPSIS THALIANA) [SEQ ID NO: 8] | 25.5 ± 8.6 | – | – | –
4 | RVRVWVDENGIVISVPTIG (VITIS VINIFERA) [SEQ ID NO: 5] | 30.2 ± 31.3 | – | – | –
5 | RVRVWVDENGIVTRVPVIG (SAMBUCUS NIGRA) [SEQ ID NO: 7] | 56.3 ± 2.6 | better effect of reducing the blood sugar values | – | –
6 | RVRVWVDSYGIVSMVPKIG (VITIS VINIFERA) [SEQ ID NO: 4] | 67.8 ± 9.1 | better effect of reducing the blood sugar values | – | –
7 | RVRVWVNKKGKVIRVPRIG (CITRUS PARADISI) [SEQ ID NO: 6] | 26.2 ± 3.1 | – | – | –
8 | RVRVWVTERGIVAR (MOMORDICA …) [SEQ ID NO: 10] | 34.5 ± 8.8 | can reduce the blood sugar values of the normal mice efficiently | – | –
9 | RVRVWVTERGIVARPPTIG (MOMORDICA …) [SEQ ID NO: 11] | – | can reduce the blood sugar values of the normal mice efficiently | 51.9 ± 19.4 | about 50%
10 | RVWVWINKDEIVYQVPTIG (MEDICAGO TRUNCATULA) [SEQ ID NO: 3] | 52.5 ± 14.9 | – | – | –
11 | RVWVWVNSKGIVIRTPIIT (ZINNIA ELEGANS) [SEQ ID NO: 2] | 24.5 ± 2.3 | – | – | –
